Data taken from patent publication US12617777B2, “GPR84 antagonists and uses thereof” (Liminal BioSciences Limited, priority 2021, dated 2026).

What was measured:
human GPR84 receptor = target: T1, human GPR84 receptor (Homo sapiens, UniProt Q9NQS5); assay: Gαi biosensor BRET assay in HEK293 cells (antagonism of ZQ-16); assay type: cell-based; conditions: for IC50: HEK293 cells, antagonism of 200 nmol/L ZQ-16; for inhibition at 10 µM: HEK293, single concentration 10 μM (designated F); for inhibition at 2 µM: HEK293, single concentration 2 μM (designated A); for inhibition at 1 µM: HEK293, single concentration 1 μM (designated A°); for inhibition at 5 µM: HEK293, single concentration 5 μM (designated D)
T1 construct: host or cells: HEK293, transient transfection
How it was run: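 HEK293 cells transiently expressing human GPR84, Gαi2-Rluc8, GFP10-Gγ2 and Gβ1, in Tyrode's buffer pH 7.5. Compounds preincubated 5 min at 37° C, then 200 nmol/L ZQ-16 for 5 min at room temperature; coelenterazine 400A 5 μmol/L. BRET2 acceptor/donor ratio, background- and vehicle-corrected net BRET.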

neutrophils = assay: Neutrophil migration assay (embelin as chemotactic agent, ATPlite readout); assay type: cell-based; conditions: for IC50: Neutrophil, human neutrophils, embelin as chemotactic agent, read-out: Human Neutrophil migration inhibition IC50; for Human Neutrophil migration inhibition - fold potency to Control Compound: normalized to GPR84 antagonist Control Compound (average IC50 131 nM)
Experimental: Neutrophil migration assay. After isolation, neutrophils were resuspended in chemotaxis buffer (DMEM supplemented with 10 mM HEPES) at a concentration of 8.9×10^6 cells/ml. In a 96-well plate, 20 μl of compound solution in chemotaxis buffer is added to 180 μl of cell suspension. After incubation at 37° C. for 30 minutes, 75 μl of cell suspension is transferred in the upper chamber of a 5 μm pore size Corning HTS transwell. 235 μl of chemotaxis buffer containing the chemotactic agent (embelin) is added to the lower chamber of the transwell. After a 60-minute incubation time at 37° C. in 5%0 C02, the upper chamber of the transwell is removed and the plate is centrifuged at 1500 rpm for 6 minutes. Supermatant is removed and cells resuspended in 100 ul of PBS. ATP content was assessed using ATPlite Luminescence Assay System® according to manufacturer instructions (Perkin Elmer, Buckinghamshire, UK). Briefly, 50 μl of ATPlite buffer and 50 μl of lysis solution is added to the lower chamber of the Transwells. After incubation at room temperature, in the dark with constant agitation for 5 minutes, 150 μl of cell lysate is transferred in a 96 wells white plate and incubated for 10 minutes in the dark. Luminescence is read on a TECAN plate reader, Infinite M1000 (Tecan, Morrisville, NC).
The compound numbers correspond to the compound numbers in Table 1. […] Normalization of the results takes the donor's variation into account.

T1 sequence (Q9NQS5 whole entry): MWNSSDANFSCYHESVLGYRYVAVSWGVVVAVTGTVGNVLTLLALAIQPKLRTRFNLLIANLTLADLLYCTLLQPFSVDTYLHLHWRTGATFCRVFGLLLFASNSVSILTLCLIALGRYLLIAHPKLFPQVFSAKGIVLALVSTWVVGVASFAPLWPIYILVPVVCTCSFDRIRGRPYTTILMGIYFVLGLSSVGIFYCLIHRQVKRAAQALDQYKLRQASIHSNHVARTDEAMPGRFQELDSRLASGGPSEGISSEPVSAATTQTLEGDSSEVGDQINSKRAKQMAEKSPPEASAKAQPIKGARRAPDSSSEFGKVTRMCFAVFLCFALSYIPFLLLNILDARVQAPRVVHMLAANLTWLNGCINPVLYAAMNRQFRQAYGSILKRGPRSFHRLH

SMILES | inhibition at 15 µM (human GPR84 receptor; HEK293, single concentration 15 μM (designated H)) [%] | IC50 (human GPR84 receptor) [nM] | IC50 (neutrophils) [nM] | Human Neutrophil migration inhibition - fold potency to Control Compound (neutrophils) | inhibition at 10 µM (human GPR84 receptor) [%] | inhibition at 2 µM (human GPR84 receptor) [%] | inhibition at 1 µM (human GPR84 receptor) [%] | inhibition at 6 µM (human GPR84 receptor; HEK293, single concentration 6.00 μM (designated D°)) [%] | inhibition at 25 µM (human GPR84 receptor; HEK293, single concentration 25 μM (designated I)) [%] | inhibition at 5 µM (human GPR84 receptor) [%]
Cc1cc(C#CC(C)(C)O)ccc1-c1cn(CC2CCCCO2)nn1 (stereo not shown) [Compound I-79] | > 75 | > 3000 | 300 to 1000 | C (IC50≤0.5-fold relative to Control Compound) |  |  |  |  |  | 
Cc1cc(C#CCN(C)CC2CC2)ccc1-c1cn(CC2CCCCO2)nn1 (stereo not shown) [Compound I-121] |  | 300 to 1000 | 300 to 1000 | C (IC50≤0.5-fold relative to Control Compound) | > 75 |  |  |  |  | 
Cc1cc(C#CC2CC2)cnc1-c1cn(CC2CCCCO2)nn1 (stereo not shown) [Compound I-107] |  | 1000 to 3000 | ≤ 300 | A (IC50 of >1.0-fold relative to Control Compound) | > 75 |  |  |  |  | 
Cc1cc(N2CC(C)(NCc3ccccn3)C2)ccc1-c1cn(CC2CCCCO2)nn1 (stereo not shown) [Compound I-441] |  | 1000 to 3000 | ≤ 300 | A (IC50 of >1.0-fold relative to Control Compound) | 50 to 75 |  |  |  |  | 
CCc1cc(C#CCNC(=O)OC(C)(C)C)ccc1-c1cn(CC2CCCCO2)nn1 (stereo not shown) [Compound I-572] |  | 300 to 1000 | ≤ 300 | A (IC50 of >1.0-fold relative to Control Compound) | > 75 |  |  |  |  | 
CO[C@H](c1cn(C[C@H]2CCCCO2)nn1)c1cc(C#CC2CC2)ccc1C [Compound I-511] |  | ≤ 300 | ≤ 300 | A (IC50 of >1.0-fold relative to Control Compound) |  | > 75 |  |  |  | 
Cc1cc(C#CCNCc2ccccc2)ccc1-c1cn(CC2CCCCO2)nn1 (stereo not shown) [Compound I-86] |  | 300 to 1000 | 300 to 1000 | C (IC50≤0.5-fold relative to Control Compound) |  |  |  |  |  | 
Cc1cc(C#CC2CC2)cnc1-c1cn(CC2CCCCO2)cn1 (stereo not shown) [Compound I-424] |  | 1000 to 3000 | ≤ 300 | A (IC50 of >1.0-fold relative to Control Compound) | > 75 |  |  |  |  | 
CN(C)c1cc(N2CC(C)(CO)C2)ccc1-c1cn(C[C@@H]2CC(C)(C)CO2)nn1 (stereo in doubt) [Compound I-589] |  | ≤ 300 | ≤ 300 | A (IC50 of >1.0-fold relative to Control Compound) |  |  | > 75 |  |  | 
CN(C)c1cc(C#CC2CC2)ccc1-c1cn(CC2CCCCO2)nn1 (stereo not shown) [Compound I-87] |  | 1000 to 3000 | 1000 to 3000 | C (IC50≤0.5-fold relative to Control Compound) |  |  |  |  |  | 
CC(C)Oc1cc(C#CC2CC2)cnc1-c1cn(CC2OCC(C)(C)CO2)nn1 [Compound I-651] |  | ≤ 300 | ≤ 300 | A (IC50 of >1.0-fold relative to Control Compound) |  | > 75 |  |  |  | 
Cc1cc(N2CCN(Cc3ccccn3)CC2)ccc1-c1cn(CC2OCC(C)(C)CO2)nn1 [Compound I-531] |  | ≤ 300 | ≤ 300 | A (IC50 of >1.0-fold relative to Control Compound) | > 75 |  |  |  |  | 
CC(C)Oc1cc(C#CC2CC(F)(F)C2)cnc1-c1cn(CC2OCC(C)(C)CO2)nn1 [Compound I-650] |  | 300 to 1000 | ≤ 300 | A (IC50 of >1.0-fold relative to Control Compound) |  | > 75 |  |  |  | 
Cc1cc(N2CCN(Cc3ccccn3)CC2)ccc1-c1cn(C[C@H]2CCCCO2)nn1 [Compound I-423] |  | 300 to 1000 | ≤ 300 | A (IC50 of >1.0-fold relative to Control Compound) |  |  |  | > 75 |  | 
Clc1cc(C#CC2CC2)ccc1-c1cn(CC2CCCCO2)nn1 (stereo not shown) [Compound I-315] |  | > 3000 | 300 to 1000 | C (IC50≤0.5-fold relative to Control Compound) |  |  |  |  | > 75 | 
Cc1cc(N2CC3(CCCN3Cc3ccccc3)C2)ccc1-c1cn(CC2CCCCO2)nn1 (stereo not shown) [Compound I-149] |  |  | 1000 to 3000 | C (IC50≤0.5-fold relative to Control Compound) |  | 25 to 50 |  |  |  | 
Cc1cc(C#CCNc2ccccc2)ccc1-c1cn(CC2CCCCO2)nn1 (stereo not shown) [Compound I-68] |  | 1000 to 3000 | 300 to 1000 | B (IC50 of >0.5-≤1.0-fold relative to Control Compound) |  |  |  |  |  | 50 to 75

SMILES | inhibition at 15 µM (human GPR84 receptor; HEK293, single concentration 15 μM (designated H)) [%] | IC50 (human GPR84 receptor) [nM] | IC50 (neutrophils) [nM] | Human Neutrophil migration inhibition - fold potency to Control Compound (neutrophils) | inhibition at 10 µM (human GPR84 receptor) [%] | inhibition at 2 µM (human GPR84 receptor) [%] | inhibition at 1 µM (human GPR84 receptor) [%] | inhibition at 6 µM (human GPR84 receptor; HEK293, single concentration 6.00 μM (designated D°)) [%] | inhibition at 25 µM (human GPR84 receptor; HEK293, single concentration 25 μM (designated I)) [%] | inhibition at 5 µM (human GPR84 receptor) [%]
Cc1cc(C#CC2(O)CCCCC2)ccc1-c1cn(CC2CCCCO2)nn1 (stereo not shown) [Compound I-94] |  | 1000 to 3000 | 1000 to 3000 | C (IC50≤0.5-fold relative to Control Compound) | > 75 |  |  |  |  | 
Cc1cc(C#CC(C)(C)C)ccc1-c1cn(CC2CCCCO2)nn1 (stereo not shown) [Compound I-67] |  | 1000 to 3000 | 300 to 1000 | B (IC50 of >0.5-≤1.0-fold relative to Control Compound) |  |  |  |  |  | 
Cc1cc(C#CCn2cc(-c3ccc([N+](=O)[O-])cc3)nn2)ccc1-c1cn(CC2CCCCO2)nn1 (stereo not shown) [Compound I-454] |  | ≤ 300 | ≤ 300 | A (IC50 of >1.0-fold relative to Control Compound) | > 75 |  |  |  |  | 
Cc1cc(N2CCN(Cc3ccccn3)CC2)ccc1-c1cn(CC2CCC(C)(C)CO2)nn1 (stereo not shown) [Compound I-562] |  | ≤ 300 | ≤ 300 | A (IC50 of >1.0-fold relative to Control Compound) | > 75 |  |  |  |  | 
Cc1cc(N2CCN(Cc3ccccn3)CC2)ccc1-c1cn(CC2CC(C)(C)CO2)nn1 (stereo not shown) [Compound I-530] |  | ≤ 300 | ≤ 300 | A (IC50 of >1.0-fold relative to Control Compound) | > 75 |  |  |  |  | 
Cc1cc(C#CCN2CC(C)(C)C2)ccc1-c1cn(CC2CCCCO2)nn1 (stereo not shown) [Compound I-119] |  | 1000 to 3000 | 300 to 1000 | C (IC50≤0.5-fold relative to Control Compound) |  |  |  |  |  | 
Cc1cc(C#CCN2CCC(F)(F)CC2)ccc1-c1cn(CC2CCCCO2)nn1 (stereo not shown) [Compound I-118] |  | > 3000 | ≤ 300 | C (IC50≤0.5-fold relative to Control Compound) | > 75 |  |  |  |  | 
FC(F)(F)c1cc(C#CC2CC2)ccc1-c1cn(CC2CCCCO2)nn1 (stereo not shown) [Compound I-81] |  | > 3000 | 300 to 1000 | C (IC50≤0.5-fold relative to Control Compound) | 50 to 75 |  |  |  |  | 
CN(C)c1cc(N2CC(C)(CO)C2)ccc1-c1cn(C[C@H]2CC(C)(C)CO2)nn1 (stereo in doubt) [Compound I-588] |  | ≤ 300 | ≤ 300 | A (IC50 of >1.0-fold relative to Control Compound) |  |  | > 75 |  |  | 
Cc1ccc(C#CC2CC2)cc1-n1nc(CC2CCCCO2)oc1=O (stereo not shown) [Compound I-14] |  | 1000 to 3000 | ≤ 300 | A (IC50 of >1.0-fold relative to Control Compound) | > 75 |  |  |  |  | 
CCc1cc(C#CC2CC2)ccc1-c1cn(CC2CCCCO2)nn1 (stereo not shown) [Compound I-77] |  | 300 to 1000 | ≤ 300 | A (IC50 of >1.0-fold relative to Control Compound) |  |  |  |  |  | > 75
Cc1cc(N2CCN(Cc3ccccn3)CC2)ccc1-c1cn(C[C@H]2CCC(F)(F)CO2)nn1 (stereo in doubt) [Compound I-635] |  | ≤ 300 | 300 to 1000 | C (IC50≤0.5-fold relative to Control Compound) | 50 to 75 |  |  |  |  | 
CCc1cc(N2CCN(Cc3ccccn3)CC2)cnc1-c1cn(C[C@H]2CCCCO2)nn1 [Compound I-459] |  | 1000 to 3000 | ≤ 300 | C (IC50≤0.5-fold relative to Control Compound) | > 75 |  |  |  |  | 
CCc1cc(C#CCNc2cccnc2)cnc1-c1cn(C[C@H]2CCCCO2)nn1 [Compound I-535] |  | ≤ 300 | ≤ 300 | B (IC50 of >0.5-≤1.0-fold relative to Control Compound) | > 75 |  |  |  |  | 
CNC(C)(C)COc1ccc(-c2cn(CC3CCCCO3)nn2)c(C)c1 (stereo not shown) [Compound I-288] |  |  |  |  | 25 to 50 |  |  |  |  | 
Cc1cc(C(=O)NCC2CC2)ccc1-c1cn(CC2CCCCO2)nn1 (stereo not shown) [Compound I-357] |  |  |  |  | 50 to 75 |  |  |  |  | 
